In data set [1] the test system is Salmonella typhimurium ATCC 14028 attached to human buccal epithelial cells. Format: cell-based. The procedure: Studies were conducted on the attachment of Salmonella typhimurium to human buccal epithelial cells using the modified procedure of Boussard et al., International J. Pharmaceutics 53: 253-256 (1989). In this study, the activities of cationic and anionic surfactant compounds as well as certain chelating agents were compared on the detachment of S. typhimurium from epithelial cells.
To this end, bacteria were grown on nutrient agar for 16 hours at 37° C. The cells were suspended in 0.008 M phosphate buffered saline (PBS) at pH 7.2 and washed two times at 4500 rpm for 10 minutes. The last suspension was diluted in PBS to obtain a cell concentration of 0.5 to 1×10^9 cells/ml. Human epithelial cells were obtained by swabbing the buccal surface of a healthy, nonsmoking donor. […] The number of living cells was estimated and the suspension diluted to 0.5 to 1×10^5 cells/ml.
Next, the suspension of the human buccal cells was mixed with an equal volume of the bacterial suspension (3.0 ml), or PBS (0.8 ml). Contact was allowed for 1.5 hours at 35° C. under agitation. The mixtures were then centrifuged for 10 minutes at 4500 rpm. Each suspension, 1.0 ml, was transferred into Eppendorf vials and washed with PBS at 1500 rpm for 10 minutes. After the washing, the cells were treated with 1.0 ml PBS or 1.0 ml of the test chemical solution. Treatment was performed by suspending and vortexing on a low speed for 30 seconds followed by centrifugation at 1500 rpm for 10 minutes.
After the treatment, the cells were washed once with PBS and then 20 μl of erythrosin B was added to each vial. The suspension was centrifuged at 1500 rpm for 10 minutes, and the cells were washed twice under the same conditions. The final pellet was suspended in 300 μl of PBS. This suspension was spread out onto microscope slides and dried overnight at room temperature. After counter staining with methylene blue, the slides were microscopically examined under oil immersion.

Data set [2] has as its system Salmonella typhimurium on chicken skin. Description: Prevention of attachment of Salmonella on excised chicken skin (Table F5). Particulars: for CFU/ml on XLD agar: rinse water. The procedure:
To determine the ability of surfactants to inhibit attachment or produce detachment of Salmonella, the following experiment was conducted. A hole was bored into the bottom of a 150 ml specimen cup. Chicken skin was excised from a drum stick and then placed over the cap of the specimen cup, and then the cap was screwed on. S. typhimurium was diluted 1:5000 with PBS or a surfactant. The surfactants were diluted appropriately. The skin was then inoculated with the solution containing the S. typhimurium and the surfactant for 30 minutes at room temperature.
Following incubation, the skin was washed. The rinse water was diluted appropriately in PBS and then plated onto XLD pour plates. The S. typhimurium was counted and reported as CFU/ml. The skin was swabbed so as to remove any remaining S. typhimurium using a nitroellulose lift and the CFU's/ml on the lift were also counted.

The test system is the same in data set [3]. As to the kind of experiment: Effect of surfactants on Salmonella attached to chicken skin, drumsticks (Tables F1-F4). Particulars: 4° C. The procedure: The following experiments utilizing chicken legs were conducted to determine the killing potential of a variety of surfactants against Salmonella on the skin and free in solutions. To this end, chicken legs obtained from the Department of Agriculture at the University of Arkansas, Fayetteville, were incubated for thirty minutes at room temperature with a 1:5000 dilution of Salmonella typhimurium. The chicken legs were removed five at a time and then rinsed twice in tap water to remove the unattached and excess Salmonella. The rinse water was sampled, diluted, and then plated onto XLD pour plates. […] The chicken legs were then removed and rinsed twice in tap water to remove the released Salmonella and excess chemicals. Rinses were then sampled, diluted, and then plated onto XLD pour plates.
The chicken legs were then individually washed with 100 ml sterile double distilled water, and then shaken fifty times. Samples of the wash H2 O were diluted and plated onto XLD pour plates. The chicken legs were further swabbed after the washing step above. The swabs were then plated onto the XLD plates. A set of wash samples were enriched with TT Broth Base Hajna and then plated onto XLD plates.
All of the samples were plated in 1 ml aliquots onto XLD pour plates. A positive control sample incubated in sterile double distilled water at 4° C. was run for each of the aforementioned conditions. Treatments occurred at both 4° C. and 25° C. The data is reported as the mean number of CFU/ml. The ratio in the table represents the number of chicken legs out of a sample of ten chicken legs producing the notated number of colonies, as indicated by the +, ++, +++, or ++++.

The subject of data set [4] is Salmonella typhimurium ATCC 14028. Description: Minimum growth inhibitory concentration, macrodilution. It is filed as cell-based. Particulars: Salmonella enterica, Mueler Hinton broth, macrodilution (NCCLS). The procedure:
Minimum growth inhibitory concentrations (MICs) of quaternary ammonium compounds and Na2 -EDTA for Salmonella were determined using Mueler Hinton broth (BBL Microbiology system, Cockeysville, Md.) and by the macrodilution method established by the National Committee for Clinical Laboratory Standards (NCCLS). Escherichia coli ATCC 25922 and Staphylococcus aureus ATCC 29213 were included in each assay as reference strains.

For data set [5] the test system is unchanged. As to the kind of experiment: Effect on viability of Salmonella in suspension (Tables D-1 to D-3). It is filed as cell-based. Particulars: for bacterial viability: Table D-3. The procedure:
EC50 values for four of the compounds were calculated from the bactericidal activity of the compounds as a function of molar concentration by a nonlinear regression algorithm.
In addition to the quaternary ammonium compounds, the antimicrobial activities of chelating agents Na2 -EDTA and EGTA were investigated. Na2 -EDTA was purchased from the Sigma Chemical Company (St. Louis, Mo.). Na2 -EDTA was dissolved in 0.04 M PPB prior to the assay and further dilutions were made in the same buffer.
EGTA was purchased from the Aldrich Chemical Company (Milwaukee, Wis.). EGTA was dissolved in 0.04 M PPB according to the procedure described by Harafuji and Ogawa (J. Biochem. 87:1305-1312 (1980)). After heating EGTA for 15 minutes at 80° C., the pH was adjusted to 7.0 by addition of NaOH. EGTA was filter-sterilized using a 0.2 μm Acro disc filter (Gelman Sciences; Ann Arbor, Mich.) prior to the assay. Further dilutions were made in sterile PPB.

“Also recorded” adds a separate entry of the source. Like-named read-outs stand apart in the source and are kept apart here.

As for `CCCCCCCCCCCCOS(=O)(=O)[O-].[Na+]` [SDS, sodium dodecylsulfate, reference compound], in data set [1] (25 ug/ml, Table A-1), the “adherence, mean value of attached bacteria” value (from here on “adherence, mean value”) is recorded as 43 ± 25. The “adherence, mean value” value in data set [1] (50 ug/ml, Table A-1) is given as 26 ± 19. In addition, in data set [1] (500 ug/ml, Table A-1), the “cytotoxicity to buccal epithelial cells” value was “cytotoxic”. The “CFU/ml on XLD agar” value in data set [2] (30 minutes at room temperature) is 4 × 10^2 CFU/ml. Besides, in data set [3] (0.1%), the “Enrichment, chicken legs out of ten” value is 10/10; the “Rinse H2O” value is “++ (11-100)”; the “Surfactant Solution” value was “++ (11-100)”; the “Swabs, chicken legs producing the notated number of colonies” value (“Swabs … of colonies” below) is 10/10. Moreover, in data set [3] (0.1%), the “Swabs, colonies” value is reported as “++ (11-100)”; the “Wash H2O, chicken legs producing the notated number of colonies” value (shortened to “Wash H2O … of colonies”) is on record as 10/10; the “Wash H2O, colonies” value was “++ (11-100)”. Besides, in data set [3] (0.5%), the “Enrichment, chicken legs out of ten” value is given as 10/10; the “Rinse H2O” value is on record as “+ (1-10)”; the “Surfactant Solution” value is reported as “++ (11-100)”; the “Swabs … of colonies” value is recorded as 10/10. Also, in data set [3] (0.5%), the “Swabs, colonies” value was “++ (11-100)”; the “Wash H2O … of colonies” value is reported as 10/10; the “Wash H2O, colonies” value is “++ (11-100)”. Also, in data set [3] (1.0%), the “Enrichment, chicken legs out of ten” value is on record as 10/10; the “Rinse H2O” value is listed as “+ (1-10)”; the “Surfactant Solution” value is recorded as “+ (1-10)”; the “Swabs … of colonies” value is 10/10. Besides, in data set [3] (1.0%), the “Swabs, colonies” value is “++ (11-100)”; the “Wash H2O … of colonies” value is reported as 10/10; the “Wash H2O, colonies” value is reported as “++ (11-100)”.
Turning to `CC(C)(C)CC(C)(C)c1ccc(OCCOCC[N+](C)(C)Cc2ccccc2)cc1` [Benzethonium Chloride, reference compound], in data set [2], the “preventing attachment of S. typhimurium on chicken skin (in words)” value is “most effective in preventing Salmonella contamination of chicken skin”. Moreover, in data set [2] (30 minutes at room temperature), the “CFU/ml on XLD agar” value worked out at 10 CFU/ml. Moreover, the “Nitrocellulose lift (# of colonies)” value in data set [2] (skin, 30 minutes at room temperature) was 250 # of colonies. Besides, in data set [3] (0.1%), the “Enrichment, chicken legs out of ten” value was 2/10; the “Rinse H2O” value was “+ (1-10)”; the “Surfactant Solution” value is given as 0 CFU/ml; the “Swabs … of colonies” value is listed as 9/10. Further, in data set [3] (0.1%), the “Swabs, colonies” value was “++ (11-100)”; the “Wash H2O … of colonies” value was 1/10; the “Wash H2O, colonies” value is on record as “+ (1-10)”. For the same compound, in data set [3] (0.5%), the “Enrichment, chicken legs out of ten” value is 0/10; the “Rinse H2O” value was “+ (1-10)”; the “Surfactant Solution” value is listed as 0 CFU/ml; the “Swabs … of colonies” value is on record as 8/10. Moreover, in data set [3] (0.5%), the “Swabs, colonies” value is “++ (11-100)” and the “Wash H2O … of colonies” value is on record as 0/10. In data set [3] (1.0%), the “Enrichment, chicken legs out of ten” value was 0/10; the “Rinse H2O” value is listed as “+ (1-10)”; the “Surfactant Solution” value was 0 CFU/ml; the “Swabs … of colonies” value is on record as 5/10. Moreover, in data set [3] (1.0%), the “Swabs, colonies” value was “++ (11-100)” and the “Wash H2O … of colonies” value was 0/10.
In general, MIC refers to the lowest concentration that inhibits growth of the organism. Read a high MIC as weaker potency. In data set [4], `O=C(O)CN(CCN(CC(=O)O)CC(=O)O)CC(=O)O` [Na2 -EDTA, disodium ethylenectiaminetetraacetate, reference compound] yielded an MIC of 625 µg/mL. In addition, the “adherence, mean value” value turned out to be 43 ± 21 in data set [1] (500 ug/ml, Table A-2); 22 ± 12 in data set [1] (1250 ug/ml, Table A-2); 35 ± 18 in data set [1] (2500 ug/ml, Table A-2); 31 ± 14 in data set [1] (10,000 ug/ml, Table A-2). The “effect on bacteria attached to the epithelial cells (in words)” value in data set [1] (chelating agents, Na2-EDTA at 1250 μg/ml) is “highly effective”. Besides, the bacterial viability in data set [5] (1,250 μg/ml) is 9.48 ± 0.63 × 10^8 CFU/ml; in data set [5] (2,500 μg/ml), 9.68 ± 0.16 × 10^8 CFU/ml; in data set [5] (5,000 μg/ml), 9.89 ± 0.37 × 10^8 CFU/ml. The “bactericidal effect against S. typhimurium (in words)” value in data set [5] (viability testing in suspension) is given as “ineffective; also recorded: no bactericidal effect”.

(Values after patent publication US5366983A, “Use of quaternary ammonium compounds to remove salmonella contamination from meat products” (The Board of Trustees of The University of Arkansas, priority 1992, dated 1994).)
